Source: patent US4081474A, “Sulfonyloxy bromoacetanilides and their utility as biocides” (Stauffer Chemical Company, priority 1976, dated 1978)
Values after ≈ are worked out from the molar mass of the structure shown. Where two headings read alike, the source gives them in different places.

Legend:
Type in all cases: cell-based
Escherichia coli [1] = experiment: Soap Plug Test; conditions: 1% in sodium stearate soap plug, 37° C., 17 hours
Staphylococcus aureus [2] = experiment: Soap Plug Test; conditions: 1% in sodium stearate soap plug, 37° C., 17 hours
Aspergillus niger [3] = experiment: In Vitro Vial Test (malt broth); conditions: 168 h; for MIC: read-out: Lowest Effective Concentration
Penicillium italicum [4] = experiment: In Vitro Vial Test (malt broth); conditions: 168 h; for MIC: read-out: Lowest Effective Concentration; for minimal effective concentration: read-out: Lowest Effective Concentration (partial control)
Escherichia coli [5] = experiment: In Vitro Vial Test (nutrient broth); conditions: 168 h; for MIC: read-out: Lowest Effective Concentration; for minimal effective concentration: read-out: Lowest Effective Concentration (partial control)
Staphylococcus aureus [6] = experiment: In Vitro Vial Test (nutrient broth); conditions: 168 h; for MIC: read-out: Lowest Effective Concentration
Aspergillus niger [7] = experiment: Microbiocide Testing Procedure Using Agar; conditions: potato dextrose agar, 30° C., read-out: Minimum Inhibitory Concentration
Description: (§1) This test measures the bactericidal and fungicidal properties of a compound when in contact with a growing bacterium or fungi in an artificial medium. […] The treated agar mixture is then allowed to come to room temperature and solidify. Cells of the particular organism are then streaked on the surface of the solidified agar and are then incubated for such lengths of time that untreated samples containing no toxicant show luxurious growth typical of the particular organism. This time varies from 24 hours to one week, depending on the particular organism. The fungi are incubated at 30° C. and the bacteria are incubated at 37° C. Nutrient agar is used as the medium in this test for the bacteria. Potato dextrose agar is used as the medium for the fungi.

Escherichia coli [8] = experiment: Microbiocide Testing Procedure Using Agar; conditions: nutrient agar, 37° C., read-out: Minimum Inhibitory Concentration
Description: as §1

Penicillium italicum [9] = experiment: Microbiocide Testing Procedure Using Agar; conditions: potato dextrose agar, 30° C.
Description: as §1

Staphylococcus aureus [10] = experiment: Microbiocide Testing Procedure Using Agar; conditions: nutrient agar, 37° C., read-out: Minimum Inhibitory Concentration
Description: as §1

Escherichia coli [11] = experiment: Detergent Formulation Test; conditions: washed cotton cloth, compounds at 0.2% in Tide detergent, 37° C.
Staphylococcus aureus [12] = experiment: Detergent Formulation Test; conditions: washed cotton cloth, compounds at 0.2% in Tide detergent, 37° C.
[13] = tested on: Brevibacterium ammoniagenes; experiment: Detergent Formulation Test; conditions: washed cotton cloth, compounds at 0.2% in Tide detergent, 37° C.
[14] = tested on: Trichophyton mentagrophytes; experiment: Detergent Formulation Test; conditions: washed cotton cloth, compounds at 0.2% in Tide detergent, 37° C.
[15] = malt broth, one week, value printed in: partial control at this concentration
[16] = nutrient broth, one week, value printed in: partial control at this concentration

Q: `O=C(Nc1ccc(Cl)cc1)Nc1ccc(Cl)c(Cl)c1` [TCC, 3,4,4-trichlorocarbanilide, reference compound] was tested. Which “Zone of Biological Inhibition (radius)” value (Escherichia coli [1]) did it give?
A: The value was 0 mm.

Q: And the “Zone of Biological Inhibition (radius)” value (Staphylococcus aureus [2])?
A: Its value is 5 mm.

Q: How did the MIC (Aspergillus niger [3]) turn out when `CNC(=O)Oc1cccc(NC(=O)CBr)c1` [Compound 2, 3'-N-methyl carbamoyloxy bromoacetanilide] was run?
A: Its MIC is over 50 µg/mL.

Q: And the MIC (Penicillium italicum [4])?
A: The MIC was over 50 µg/mL.

Q: What about the MIC (Escherichia coli [5]) of the same compound?
A: Its MIC is 50 µg/mL (≈ 174 µM).

Q: What about the MIC (Staphylococcus aureus [6]) of the same compound?
A: Its MIC is 50 µg/mL (≈ 174 µM).

Q: With `O=C(CBr)Nc1cccc(OS(=O)(=O)c2ccccc2)c1` [Compound 8, m-Phenylsulfonyloxy bromoacetanilide] as the compound, how does the MIC (Aspergillus niger [3]; malt broth, one week) read?
A: The MIC was over 50 µg/mL.

Q: And the MIC (Penicillium italicum [4]; malt broth, one week)?
A: The MIC was 50 µg/mL (≈ 135 µM).

Q: And the MIC (Escherichia coli [5]; nutrient broth, one week)?
A: Its MIC is over 50 µg/mL.

Q: And the MIC (Staphylococcus aureus [6]; nutrient broth, one week)?
A: Its MIC is 50 µg/mL (≈ 135 µM).

Q: What about the MIC (Aspergillus niger [7]) of the same compound?
A: Its MIC is over 50 µg/mL.

Q: What about the MIC (Escherichia coli [8]) of the same compound?
A: Its MIC is over 50 µg/mL.

Q: What about the MIC (Penicillium italicum [9]; read-out: Minimum Inhibitory Concentration) of the same compound?
A: The MIC was 50 µg/mL (≈ 135 µM).

Q: And the MIC (Staphylococcus aureus [10])?
A: The MIC was 10 µg/mL (≈ 27 µM).

Q: Which results are given for `O=C(CBr)Nc1ccc(O)cc1` [Compound 6]?
A: MIC (Aspergillus niger [3]; malt broth, one week): 50 µg/mL (≈ 217 µM); MIC (Penicillium italicum [4]; malt broth, one week): 50 µg/mL (≈ 217 µM); MIC (Escherichia coli [5]; nutrient broth, one week): 25 µg/mL (≈ 109 µM); MIC (Staphylococcus aureus [6]; nutrient broth, one week): 25 µg/mL (≈ 109 µM)

Q: Which minimal effective concentration (Aspergillus niger [3]; read-out: Lowest Effective Concentration (partial control)) does the source give for `CC(C)NC(=O)Oc1cccc(NC(=O)CBr)c1` [Compound 3] here?
A: The minimal effective concentration was 100 µg/mL.

Q: What about the minimal effective concentration (Penicillium italicum [4]) of the same compound?
A: Its minimal effective concentration is 25 µg/mL.

Q: What about the MIC (Escherichia coli [5]) of the same compound?
A: The MIC was 25 µg/mL (≈ 79.3 µM).

Q: What about the MIC (Staphylococcus aureus [6]) of the same compound?
A: The MIC was 10 µg/mL (≈ 31.7 µM).

Q: What about the “Zone of Biological Inhibition (radius)” value (Escherichia coli [1]) of the same compound?
A: The value was 2 mm.

Q: And the “Zone of Biological Inhibition (radius)” value (Staphylococcus aureus [2])?
A: Its value is 6-8 mm.

Q: With `O=C(CBr)Nc1cccc(O)c1` [Compound 1, 3'-hydroxybromoacetanilide] as the compound, how does the MIC (Aspergillus niger [3]; malt broth, one week) read?
A: Its MIC is 100 µg/mL (≈ 435 µM).

Q: What about the minimal effective concentration (Penicillium italicum [4]; [15]) of the same compound?
A: Its minimal effective concentration is 25 µg/mL.

Q: What about the minimal effective concentration (Escherichia coli [5]; [16]) of the same compound?
A: The minimal effective concentration was 10 µg/mL.

Q: And the MIC (Staphylococcus aureus [6]; nutrient broth, one week)?
A: The MIC was 10 µg/mL (≈ 43.5 µM).

Q: What about the “Zone of Biological Inhibition (radius)” value (Escherichia coli [1]) of the same compound?
A: The value was 2 mm.

Q: What about the “Zone of Biological Inhibition (radius)” value (Staphylococcus aureus [2]) of the same compound?
A: Its value is 12-15 mm.

Q: What about the “Zone of Biological Inhibition (radius)” value (Escherichia coli [11]) of the same compound?
A: Its value is 2 mm.

Q: And the “Zone of Biological Inhibition (radius)” value (Staphylococcus aureus [12])?
A: Its value is 3 mm.

Q: And the “Zone of Biological Inhibition (radius)” value [13]?
A: The value was 0 mm.

Q: What about the “Zone of Biological Inhibition (radius)” value [14] of the same compound?
A: The value was 1 mm.

Q: How did the MIC (Aspergillus niger [3]) turn out when `C=CCNC(=O)Oc1cccc(NC(=O)CBr)c1` [Compound 4] was run?
A: Its MIC is over 50 µg/mL.

Q: And the MIC (Penicillium italicum [4])?
A: Its MIC is 50 µg/mL (≈ 160 µM).

Q: And the MIC (Escherichia coli [5])?
A: Its MIC is over 50 µg/mL.

Q: And the MIC (Staphylococcus aureus [6])?
A: Its MIC is 50 µg/mL (≈ 160 µM).

Q: What does the source list for `CC(C)CS(=O)(=O)Oc1cccc(NC(=O)CBr)c1` [Compound 7, m-Isobutylsulfonyloxy bromoacetanilide]?
A: MIC (Aspergillus niger [3]; malt broth, one week): > 50 µg/mL; MIC (Penicillium italicum [4]; malt broth, one week): 50 µg/mL (≈ 143 µM); MIC (Escherichia coli [5]; nutrient broth, one week): > 50 µg/mL; MIC (Staphylococcus aureus [6]; nutrient broth, one week): 50 µg/mL (≈ 143 µM); MIC (Aspergillus niger [7]): > 50 µg/mL; MIC (Escherichia coli [8]): > 50 µg/mL; MIC (Penicillium italicum [9]; value printed in, not explained in Table III (Table II: partial control), read-out: Minimum Inhibitory Concentration (value in parentheses)): 10 µg/mL (≈ 28.6 µM); MIC (Staphylococcus aureus [10]): 50 µg/mL (≈ 143 µM)

Q: How did the MIC (Aspergillus niger [3]; malt broth, one week) turn out when `O=C(CCl)Nc1cccc(O)c1` [A, reference compound] was run?
A: Its MIC is over 500 µg/mL.

Q: And the minimal effective concentration (Penicillium italicum [4]; [15])?
A: Its minimal effective concentration is 500 µg/mL.

Q: And the minimal effective concentration (Escherichia coli [5]; [16])?
A: Its minimal effective concentration is 250 µg/mL.

Q: And the minimal effective concentration (Staphylococcus aureus [6]; nutrient broth, one week, value printed in: partial control at this concentration, read-out: Lowest Effective Concentration (partial control))?
A: The minimal effective concentration was 250 µg/mL.

Q: Which MIC (Aspergillus niger [3]) does the source give for `CC(C)NC(=O)Oc1cccc(NC(=O)CCl)c1` [B, reference compound] here?
A: Its MIC is over 500 µg/mL.

Q: What about the MIC (Penicillium italicum [4]) of the same compound?
A: The MIC was over 500 µg/mL.

Q: What about the MIC (Escherichia coli [5]) of the same compound?
A: The MIC was over 500 µg/mL.

Q: What about the MIC (Staphylococcus aureus [6]) of the same compound?
A: The MIC was over 500 µg/mL.

Q: Which MIC (Aspergillus niger [3]) does the source give for `O=C(CBr)Nc1cccc(OC(=O)NC2CCCCC2)c1` [Compound 5] here?
A: The MIC was over 50 µg/mL.

Q: What about the minimal effective concentration (Penicillium italicum [4]) of the same compound?
A: Its minimal effective concentration is 50 µg/mL.

Q: What about the minimal effective concentration (Escherichia coli [5]) of the same compound?
A: Its minimal effective concentration is 50 µg/mL.

Q: What about the MIC (Staphylococcus aureus [6]) of the same compound?
A: The MIC was 50 µg/mL (≈ 141 µM).
